Test results published in patent US9850283B2, “Macrocyclic inhibitors of the PD-1/PD-L1 and CD80(B7-1)/PD-L1 protein/protein interactions” (BRISTOL-MYERS SQUIBB COMPANY, priority 2013, dated 2017).
Positions of bridges follow the written chain, without caps; N, C: chain ends. Non-standard residues stand in square brackets, D forms with d. Residues, ends and D or L forms follow the SMILES beside them. ξ: configuration not given here. PEG12 = NCCOCCOCCOCCOCCOCCOCCOCCOCCOCCOCCOCCOCCC(=O)O; Phe(4-Br) = N[C@@H](Cc1ccc(Br)cc1)C(=O)O; Phe(4-Me) = Cc1ccc(C[C@H](N)C(=O)O)cc1; Bta = N[C@@H](Cc1csc2ccccc12)C(=O)O; NMeNle = CCCC[C@H](NC)C(=O)O; αMeP = C[C@@]1(C(=O)O)CCCN1; NMeA = CN[C@@H](C)C(=O)O; Nle = CCCC[C@H](N)C(=O)O; ξPip = O=C(O)C1CCCCN1; ξP = O=C(O)C1CCCN1; Sar = CNCC(=O)O

The molecules below were run against T1, Human PD-L1/PD-1 (Homo sapiens, UniProt Q9NZQ7) (assay: HTRF PD-1-Ig/PD-L1-His binding assay (human PD-L1)). Conditions: Table 6; read-out: HTRF Human PD-L1/PD-1 Binding Assay IC50.
T1 construct: made in house; host or cells: HEK293T
Description: The ability of the macrocyclic peptides of the present disclosure to bind to PD-L1 was investigated using a PD-1/PD-L1 Homogenous Time-Resolved Fluorescence (HTRF) binding assay.
Homogenous Time-Resolved Fluorescence (HTRF) Assays of Binding of Soluble PD-1 to Soluble PD-L1. Soluble PD-1 and soluble PD-L1 refers to proteins with carboxyl-end truncations that remove the transmembrane-spanning regions and are fused to heterologous sequences, specifically the Fc portion of the human immunoglobuling G sequence (Ig) or the hexahistidine epitope tag (His). All binding studies were performed in an HTRF assay buffer consisting of dPBS supplemented with 0.1% (w/v) bovine serum albumin and 0.05% (v/v) Tween-20. […] PD-L1 fusion proteins from either human, cynomologous macaques, or mouse were used. HTRF detection was achieved using europium crypate-labeled anti-Ig monoclonal antibody (1 nM final) and allophycocyanin (APC) labeled anti-His monoclonal antibody (20 nM final). Antibodies were diluted in HTRF detection buffer and 5 μl was dispensed on top of binding reaction.

T1 sequence (Q9NZQ7 with tags, fused parts or gaps): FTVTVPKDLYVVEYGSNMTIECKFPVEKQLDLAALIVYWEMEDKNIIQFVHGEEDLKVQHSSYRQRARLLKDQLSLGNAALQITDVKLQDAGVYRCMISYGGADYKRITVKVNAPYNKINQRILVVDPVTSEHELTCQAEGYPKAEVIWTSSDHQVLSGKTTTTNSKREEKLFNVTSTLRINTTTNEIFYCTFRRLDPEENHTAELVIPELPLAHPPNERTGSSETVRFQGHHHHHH

IC50 | SMILES
13 nM | CCCC[C@H]1C(=O)N(C)[C@@H](CCCC)C(=O)N[C@@H](CC(C)C)C(=O)N[C@H](C(=O)NCC(N)=O)CSCC(=O)N[C@@H](Cc2ccccc2)C(=O)N(C)[C@@H](C)C(=O)N[C@@H](CC(N)=O)C(=O)N2CCC[C@H]2C(=O)N[C@@H](Cc2cnc[nH]2)C(=O)N[C@@H](CCCNC(=N)N)C(=O)N[C@@H](CO)C(=O)N[C@@H](Cc2c[nH]c3ccccc23)C(=O)N[C@@H](CCCNC(=N)N)C(=O)N[C@@H](Cc2c[nH]c3ccccc23)C(=O)N1C [Compound No. 3] ({CH2CO}-F[NMeA]NPHRSWRW[NMeNle][NMeNle]LCG-NH2; thioether N-14)

Same assay, conditions: Table 7, Compound No. 99 variant macrocyclic peptides; read-out: HTRF Human PD-L1/PD-1 Binding Assay IC50

IC50 | SMILES
> 20000 nM | CC[C@H](C)[C@@H]1NC(=O)[C@H](C(C)C)NC(=O)[C@H]([C@@H](C)CC)NC(=O)[C@@H](Cc2ccccc2)NC(=O)[C@H](Cc2ccccc2)NC(=O)CSC[C@@H](C(=O)NCC(N)=O)NC(=O)[C@H](CCCNC(=N)N)NC(=O)[C@H](Cc2ccccc2)NC(=O)[C@H](C(C)C)NC(=O)[C@H](CCCNC(=N)N)NC(=O)[C@H](CC(=O)O)NC(=O)[C@H](CCCNC(=N)N)NC1=O [Compound No. 102] (HELM PEPTIDE1{[O=C(C[*:3])[*:2]].F.[dF].I.V.I.R.D.R.V.F.R.C.G.[am]}$PEPTIDE1,PEPTIDE1,1:R3-13:R3$$$V2.0)

Same assay, conditions: Table 8, Compound No. 1 variant macrocyclic peptides; read-out: HTRF Human PD-L1/PD-1 Binding Assay IC50

SMILES | IC50
CCCC[C@@H]1NC(=O)[C@H](CCCC)N(C)C(=O)[C@H](Cc2c[nH]c3ccccc23)NC(=O)[C@H](CO)NC(=O)[C@H](Cc2c[nH]c3ccccc23)NC(=O)CN(C)C(=O)[C@H](CC(C)C)NC(=O)[C@H](Cc2cnc[nH]2)NC(=O)C2CCCN2C(=O)[C@H](CC(N)=O)NC(=O)[C@H](C)N(C)C(=O)[C@H](Cc2ccccc2)NC(=O)CSC[C@@H](C(=O)NCC(N)=O)NC(=O)[C@H](CCCNC(=N)N)NC1=O (some centres unmarked) [Compound No. 20] ({CH2CO}-F[NMeA]N[ξP]HL[Sar]WSW[NMeNle][Nle]RCG-NH2; thioether N-14) | 8460 nM
CCCC[C@H]1C(=O)N(C)[C@@H](CCCC)C(=O)N[C@@H](C)C(=O)N[C@H](C(=O)NCC(N)=O)CSCC(=O)N[C@@H](Cc2ccccc2)C(=O)N(C)[C@@H](C)C(=O)N[C@@H](CC(N)=O)C(=O)N2CCC[C@H]2C(=O)N[C@@H](Cc2cnc[nH]2)C(=O)N[C@@H](CC(C)C)C(=O)N(C)CC(=O)N[C@@H](Cc2c[nH]c3ccccc23)C(=O)N[C@H](C)C(=O)N[C@@H](Cc2c[nH]c3ccccc23)C(=O)N1C [Compound No. 60] ({CH2CO}-F[NMeA]NPHL[Sar]W[dA]W[NMeNle][NMeNle]ACG-NH2; thioether N-14) | 43 nM
CCCC[C@H]1C(=O)N[C@@H](CCCNC(=N)N)C(=O)N[C@H](C(=O)NCC(N)=O)CSCC(=O)N[C@@H](Cc2ccccc2)C(=O)N(C)[C@@H](C)C(=O)N[C@@H](CC(N)=O)C(=O)N2CCC[C@H]2C(=O)N[C@@H](Cc2cnc[nH]2)C(=O)N[C@@H](CC(C)C)C(=O)N(C)CC(=O)N[C@@H](Cc2c[nH]c3ccccc23)C(=O)N[C@@H](CO)C(=O)N[C@@H](Cc2c[nH]c3ccccc23)C(=O)N(C)[C@@H](CC(C)C)C(=O)N1C [Compound No. 65] (HELM PEPTIDE1{[O=C(C[*:3])[*:2]].F.[meA].N.P.H.L.[Sar].W.S.W.[meL].[CCCC[C@@H](C(=O)[*:2])N(C)[*:1]].R.C.G.[am]}$PEPTIDE1,PEPTIDE1,1:R3-15:R3$$$V2.0) | 43 nM
CCCC[C@H]1C(=O)N[C@@H](CCCNC(=N)N)C(=O)N[C@H](C(=O)NCC(N)=O)CSCC(=O)N[C@@H](Cc2ccccc2)C(=O)N(C)[C@@H](C)C(=O)N[C@@H](CC(N)=O)C(=O)N2CCC[C@H]2C(=O)N[C@@H](Cc2cnc[nH]2)C(=O)N[C@@H](CC(C)C)C(=O)N(C)CC(=O)N[C@@H](Cc2c[nH]c3ccccc23)C(=O)N[C@@H](CO)C(=O)N[C@@H](Cc2c[nH]c3ccccc23)C(=O)N(C)[C@@H](Cc2ccccc2)C(=O)N1C [Compound No. 67] (HELM PEPTIDE1{[O=C(C[*:3])[*:2]].F.[meA].N.P.H.L.[Sar].W.S.W.[meF].[CCCC[C@@H](C(=O)[*:2])N(C)[*:1]].R.C.G.[am]}$PEPTIDE1,PEPTIDE1,1:R3-15:R3$$$V2.0) | 108 nM
CCCC[C@H]1C(=O)N(C)[C@@H](CCCC)C(=O)N[C@@H](CCCNC(=N)N)C(=O)N[C@H](C(=O)NCC(N)=O)CSCC(=O)N[C@@H](Cc2ccccc2)C(=O)N(C)[C@@H](C)C(=O)N[C@H](CC(N)=O)C(=O)N2CCC[C@H]2C(=O)N[C@@H](Cc2c[nH]cn2)C(=O)N[C@@H](CC(C)C)C(=O)N(C)CC(=O)N[C@@H](Cc2c[nH]c3ccccc23)C(=O)N[C@@H](CO)C(=O)N[C@@H](Cc2c[nH]c3ccccc23)C(=O)N1C [Compound No. 42] ({CH2CO}-F[NMeA][dN]PHL[Sar]WSW[NMeNle][NMeNle]RCG-NH2; thioether N-14) | > 10000 nM

Other lines, results leading:

IC50 | SMILES
34 nM | CCCC[C@H]1C(=O)N(C)[C@@H](CCCC)C(=O)N[C@@H](CCCNC(=N)N)C(=O)N[C@H](C(=O)NCC(N)=O)CSCC(=O)N[C@@H](Cc2ccccc2)C(=O)N(C)[C@@H](C)C(=O)N[C@@H](CC(N)=O)C(=O)N2CCC[C@@]2(C)C(=O)N[C@@H](Cc2cnc[nH]2)C(=O)N[C@@H](CC(C)C)C(=O)N(C)CC(=O)N[C@@H](Cc2c[nH]c3ccccc23)C(=O)N[C@@H](CO)C(=O)N[C@@H](Cc2c[nH]c3ccccc23)C(=O)N1C [Compound No. 49] ({CH2CO}-F[NMeA]N[αMeP]HL[Sar]WSW[NMeNle][NMeNle]RCG-NH2; thioether N-14)
34 nM | CCCC[C@H]1C(=O)N(C)[C@@H](CCCC)C(=O)N[C@@H](CCCNC(=N)N)C(=O)N[C@H](C(=O)NCC(N)=O)CSCC(=O)N[C@@H](Cc2ccccc2)C(=O)N(C)[C@@H](C)C(=O)N[C@@H](CC(N)=O)C(=O)N2CCCCC2C(=O)N[C@@H](Cc2cnc[nH]2)C(=O)N[C@@H](CC(C)C)C(=O)N(C)CC(=O)N[C@@H](Cc2c[nH]c3ccccc23)C(=O)N[C@@H](CO)C(=O)N[C@@H](Cc2c[nH]c3ccccc23)C(=O)N1C (some centres unmarked) [Compound No. 44] ({CH2CO}-F[NMeA]N[ξPip]HL[Sar]WSW[NMeNle][NMeNle]RCG-NH2; thioether N-14)
31 nM | CCCC[C@H]1C(=O)N(C)[C@@H](CCCC)C(=O)N[C@@H](CCCNC(=N)N)C(=O)N[C@H](C(=O)NCC(N)=O)CSCC(=O)N[C@@H](Cc2ccccc2)C(=O)N(C)[C@@H](C)C(=O)N[C@@H](CC(N)=O)C(=O)N2CCC[C@H]2C(=O)N[C@@H](Cc2cnc[nH]2)C(=O)N[C@@H](CC(C)C)C(=O)N(C)CC(=O)N[C@@H](Cc2c[nH]c3ccccc23)C(=O)N[C@@H](CO)C(=O)N[C@@H](CCSC)C(=O)N1C [Compound No. 61] ({CH2CO}-F[NMeA]NPHL[Sar]WSM[NMeNle][NMeNle]RCG-NH2; thioether N-14)
9 nM | CCCC[C@H]1C(=O)N(C)[C@@H](CCCC)C(=O)N[C@@H](CCCNC(=N)N)C(=O)N[C@H](C(=O)NCC(N)=O)CSCC(=O)N[C@@H](Cc2ccc(C)cc2)C(=O)N(C)[C@@H](C)C(=O)N[C@@H](CC(N)=O)C(=O)N2CCC[C@H]2C(=O)N[C@@H](Cc2cnc[nH]2)C(=O)N[C@@H](CC(C)C)C(=O)N(C)CC(=O)N[C@@H](Cc2c[nH]c3ccccc23)C(=O)N[C@@H](CO)C(=O)N[C@@H](Cc2c[nH]c3ccccc23)C(=O)N1C [Compound No. 36] ({CH2CO}-[Phe(4-Me)][NMeA]NPHL[Sar]WSW[NMeNle][NMeNle]RCG-NH2; thioether N-14)
7 nM | CCCC[C@H]1C(=O)N(C)[C@@H](CCCC)C(=O)N[C@@H](CCCNC(=N)N)C(=O)N[C@H](C(=O)NCC(N)=O)CSCC(=O)N[C@@H](Cc2ccccc2)C(=O)N(C)[C@@H](C)C(=O)N[C@@H](CC(N)=O)C(=O)N2CCC[C@H]2C(=O)N[C@@H](Cc2cnc[nH]2)C(=O)N[C@@H](CC(C)C)C(=O)N(C)CC(=O)N[C@@H](Cc2c[nH]c3ccccc23)C(=O)N[C@@H](CO)C(=O)N[C@@H](Cc2csc3ccccc23)C(=O)N1C [Compound No. 64] ({CH2CO}-F[NMeA]NPHL[Sar]WS[Bta][NMeNle][NMeNle]RCG-NH2; thioether N-14)
4 nM | CCCC[C@H]1C(=O)N(C)[C@@H](CCCC)C(=O)N[C@@H](CCCNC(=N)N)C(=O)N[C@H](C(=O)NCC(N)=O)CSCC(=O)N[C@@H](Cc2ccc(Br)cc2)C(=O)N(C)[C@@H](C)C(=O)N[C@@H](CC(N)=O)C(=O)N2CCC[C@H]2C(=O)N[C@@H](Cc2cnc[nH]2)C(=O)N[C@@H](CC(C)C)C(=O)N(C)CC(=O)N[C@@H](Cc2c[nH]c3ccccc23)C(=O)N[C@@H](CO)C(=O)N[C@@H](Cc2c[nH]c3ccccc23)C(=O)N1C [Compound No. 34] ({CH2CO}-[Phe(4-Br)][NMeA]NPHL[Sar]WSW[NMeNle][NMeNle]RCG-NH2; thioether N-14)

Same assay, conditions: Table 10, Compound No. 116 variant macrocyclic peptides; read-out: HTRF Human PD-L1/PD-1 Binding Assay IC50

IC50 | SMILES
21 nM | CCCC[C@H]1C(=O)N(C)[C@@H](CCCC)C(=O)N[C@@H](CCCNC(=N)N)C(=O)N[C@H](C(=O)NCC(=O)NCCOCCOCCOCCOCCOCCOCCOCCOCCOCCOCCOCCOCCC(N)=O)CSCC(=O)N[C@@H](Cc2ccccc2)C(=O)N(C)[C@@H](C)C(=O)N[C@@H](CC(N)=O)C(=O)N2CCC[C@H]2C(=O)N[C@@H](Cc2cnc[nH]2)C(=O)N[C@@H](CC(C)C)C(=O)N(C)CC(=O)N[C@@H](Cc2c[nH]c3ccccc23)C(=O)N[C@@H](CO)C(=O)N[C@@H](Cc2c[nH]c3ccccc23)C(=O)N1C [Compound No. 116] ({CH2CO}-F[NMeA]NPHL[Sar]WSW[NMeNle][NMeNle]RCG[PEG12]-NH2; thioether N-14)
